Test results published in publication PMC9146474, “3-(((1S,3S)-3-((R)-Hydroxy(4-(trifluoromethyl)phenyl)methyl)-4-oxocyclohexyl)methyl)pentane-2,4-dione: Design and Synthesis of New Stereopure Multi-Target Antidiabetic Agent” (Molecules, 2022).

Legend:
α-glucosidase = α-glucosidase (Saccharomyces cerevisiae, UniProt P53341); assay type: biochemical
Description: The α-glucosidase inhibitory activity on the S,S,R-5 was performed as per the reported protocols. […] The α-glucosidase solution (0.5 units/mL) was prepared in phosphate buffer (0.1 M, 6.90 pH). p-Nitrophenyl-α-D-glucopyranoside (5 mM) was added as substrate solution to the buffer solution. Different concentrations of the compound, i.e., 500, 250, 125, 62.5, and 31.25 μM were prepared. The enzyme solutions were mixed with the compound’s solution and were incubated for 15 min at 37 °C. To these solutions were added the pre-prepared substrate solution and the repetition of incubation. The final reaction was completed with the addition of sodium carbonate solution (0.2 M, 80 μL). The combined solution excluding the α-glucosidase was used as a blank solution. The absorbances of the solutions were recorded at 405 nm. The observations were repeated three times. The percent inhibitions at each concentration and the IC50 values were calculated according to the standard formula [48].

[1] = molecular target: T1, protein tyrosine phosphatase 1B (PTP-1B) (Homo sapiens, UniProt P18031); assay: Protein tyrosine phosphatase 1B inhibition; assay type: biochemical; settings: for inhibition at 31.25 µM: 31.25 μM/mL; for inhibition at 31.25 µM / inhibition at 62.5 µM / inhibition at 125 µM / inhibition at 250 µM: read-out: PTP-1B Percent Inhibition (converted); for inhibition at 62.5 µM: 62.5 μM/mL; for inhibition at 125 µM: 125 μM/mL; for inhibition at 250 µM: 250 μM/mL; for inhibition at 500 µM: 500 μM/mL
T1 sequence (P18031 1-435): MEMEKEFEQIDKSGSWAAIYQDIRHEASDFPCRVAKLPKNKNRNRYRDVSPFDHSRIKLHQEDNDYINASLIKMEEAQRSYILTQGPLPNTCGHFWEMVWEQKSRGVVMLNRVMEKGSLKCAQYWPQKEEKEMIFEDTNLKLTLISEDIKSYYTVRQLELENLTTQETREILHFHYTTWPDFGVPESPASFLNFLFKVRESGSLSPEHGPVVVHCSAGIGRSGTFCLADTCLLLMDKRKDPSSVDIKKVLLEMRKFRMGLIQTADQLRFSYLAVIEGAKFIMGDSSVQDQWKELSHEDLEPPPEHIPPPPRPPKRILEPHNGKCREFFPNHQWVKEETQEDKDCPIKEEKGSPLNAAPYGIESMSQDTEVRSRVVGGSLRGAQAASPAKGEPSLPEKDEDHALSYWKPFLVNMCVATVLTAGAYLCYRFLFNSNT
Description: A buffer solution with pH 7 of 3,3-dimethyl glutarate was used. […] All the solutions were incubated at 27 °C for 40 min. The absorbances of the solutions were recorded at 405 nm. The observations were repeated three times. The percent inhibitions at each concentration and the IC50 values were calculated according to the standard formula.

albino mice = settings: mouse, in vivo
Description: We also tested the toxicity profile of our compound S,S,R-5 by using the simple acute toxicity test in experimental albino mice. The mice were acquired and used in the animal house of our university as per the standard guidelines of the departmental ethical committee. As per the standard procedure, we gave various concentrations of compound S,S,R-5 to albino mice and observed them for the next 72 h.

α-amylase = assay: In-vitro α-amylase inhibition; assay type: biochemical
Description: The potential of stereopure S,S,R-5 against the α-amylase was also determined as per the protocols. The enzyme solution was prepared in the phosphate buffer and was mixed with different concentrations of the compound to allow the reaction. All the solutions were incubated as per the method. Dinitrosalicylic acid was added to the compound and standard solutions. The respective solutions were heated in water baths for a few minutes. The absorbances of the solutions were recorded at 656 nm. The observations were repeated three times. The percent inhibitions at each concentration and the IC50 values were calculated according to the standard formula [50].

[2] = DPPH free radical scavenging assay (antioxidant assay)
Description: To supplement the role of free radicals in diabetes, the free radical scavenging potential of compound S,S,R-5 was also determined as per the standard method. Different concentrations of the stereopure compound were prepared and DPPH solution in methanol (0.004%) were added to it. The solutions were incubated for half an hour. The absorbances of the solutions were recorded at 517 nm. The observations were repeated three times. The percent inhibitions at each concentration and the IC50 values were calculated according to the standard formula [52].

[3] = 500 μM/mL, listed as minor diastereomer (S,S,R-5)

Sequence of α-glucosidase (P53341 whole entry): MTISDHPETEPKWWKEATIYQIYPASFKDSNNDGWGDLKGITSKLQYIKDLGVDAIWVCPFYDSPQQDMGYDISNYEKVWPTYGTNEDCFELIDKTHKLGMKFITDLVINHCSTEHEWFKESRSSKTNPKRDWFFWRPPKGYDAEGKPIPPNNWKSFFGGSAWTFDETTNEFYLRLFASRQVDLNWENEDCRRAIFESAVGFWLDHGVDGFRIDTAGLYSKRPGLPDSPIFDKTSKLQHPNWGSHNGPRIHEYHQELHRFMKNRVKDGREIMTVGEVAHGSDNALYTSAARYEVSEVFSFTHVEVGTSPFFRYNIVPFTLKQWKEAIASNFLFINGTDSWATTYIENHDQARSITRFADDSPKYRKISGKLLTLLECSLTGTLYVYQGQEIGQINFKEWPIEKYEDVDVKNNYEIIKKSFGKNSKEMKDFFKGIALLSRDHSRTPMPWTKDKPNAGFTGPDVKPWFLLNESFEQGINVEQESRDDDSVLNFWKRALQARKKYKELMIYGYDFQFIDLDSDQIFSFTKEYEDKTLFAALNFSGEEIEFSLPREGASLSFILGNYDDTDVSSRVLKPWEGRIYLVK

Q: For `C[C@H]1O[C@H](O[C@H]2[C@H](O)[C@@H](O)[C@@H](O[C@H]3[C@H](O)[C@@H](O)C(O)O[C@@H]3CO)O[C@@H]2CO)[C@H](O)[C@@H](O)[C@@H]1N[C@H]1C=C(CO)[C@@H](O)[C@H](O)[C@H]1O` (some centres unmarked) [Acarbose], which “α-Glucosidase % Inhibition” value (α-glucosidase) is on record?
A: 95.20 ± 0.15 91.17 ± 0.53 86.98 ± 0.85 81.20 ± 0.65 77.80 ± 0.37%

Q: And the “α-Glucosidase Percent Inhibition” value (α-glucosidase)?
A: 95.20 ± 0.15 91.17 ± 0.53 86.98 ± 0.85 81.20 ± 0.65 77.80 ± 0.37%

Q: Which inhibition at 31.25 µM [1] does the source give for `C[C@H]1[C@H](C)CC[C@]2(C(=O)O)CC[C@]3(C)C(=CC[C@@H]4[C@@]5(C)CC[C@H](O)C(C)(C)[C@@H]5CC[C@]43C)[C@H]12` [Ursolic acid, reference compound] here?
A: 76%

Q: What about the inhibition at 62.5 µM [1] of the same compound?
A: 78.3%

Q: What about the inhibition at 125 µM [1] of the same compound?
A: 82.3%

Q: What about the inhibition at 250 µM [1] of the same compound?
A: 87.2%

Q: What about the inhibition at 500 µM [1] of the same compound?
A: 90.83 ± 0.47%

Q: For `CC(=O)C(C[C@H]1CCC(=O)[C@H]([C@@H](O)c2ccc(C(F)(F)F)cc2)C1)C(C)=O` [S,S,R-5, 3-(((1S,3S)-3-((R)-hydroxy(4-(trifluoromethyl)phenyl)methyl)-4-oxocyclohexyl)methyl)pentane-2,4-dione], which “Acute toxicity: behavioral changes or lethality” value (albino mice) is on record?
A: no unwanted behavioral changes or lethality

Q: What about the IC50 [1] of the same compound?
A: 910 ± 100 nM

Q: What about the inhibition at 31.25 µM [1] of the same compound?
A: 73.7%

Q: What about the inhibition at 62.5 µM [1] of the same compound?
A: 76.2%

Q: What about the inhibition at 125 µM [1] of the same compound?
A: 79.6%

Q: What about the inhibition at 250 µM [1] of the same compound?
A: 84.4%

Q: What about the IC50 (α-amylase) of the same compound?
A: 4580 ± 140 nM

Q: And the “α-Amylase Percent Inhibition” value (α-amylase; 31.25 μM/mL)?
A: 58.47 ± 0.56%

Q: What about the “α-Amylase Percent Inhibition” value (α-amylase; 62.5 μM/mL) of the same compound?
A: 62.28 ± 0.57%

Q: What about the “α-Amylase Percent Inhibition” value (α-amylase; 125 μM/mL) of the same compound?
A: 68.90 ± 0.96%

Q: What about the “α-Amylase Percent Inhibition” value (α-amylase; 250 μM/mL) of the same compound?
A: 73.08 ± 0.47%

Q: What about the IC50 [2] of the same compound?
A: 2360 ± 100 nM

Q: And the “DPPH Percent Inhibition” value ([2]; 31.25 μM/mL)?
A: 71.90 ± 0.45%

Q: What about the “DPPH Percent Inhibition” value ([2]; 62.5 μM/mL) of the same compound?
A: 76.00 ± 0.30%

Q: What about the “DPPH Percent Inhibition” value ([2]; 125 μM/mL) of the same compound?
A: 81.90 ± 0.60%

Q: What about the “DPPH Percent Inhibition” value ([2]; 250 μM/mL) of the same compound?
A: 87.45 ± 0.90%

Q: Which results are given for `CC(=O)C(CC1CCC(=O)C(C(O)c2ccc(C(F)(F)F)cc2)C1)C(C)=O` [minor (S,S,R-5)]?
A: inhibition at 500 µM [1]: 65.4%; α-Amylase % Inhibition (α-amylase; [3]): 72.65%; DPPH % Inhibition [2, 3]: 70.21%
